Assay results: patent EP4596536A1 (Shanghai de Novo Pharmatech Co., Ltd., priority 2022, dated 2024)

Biological target: T1, TLR8 (Homo sapiens, UniProt Q9NR97)
T1 construct: host or cells: HEK293 (HEK-BLUE-hTLR8)
T1 sequence (Q9NR97 27-1041): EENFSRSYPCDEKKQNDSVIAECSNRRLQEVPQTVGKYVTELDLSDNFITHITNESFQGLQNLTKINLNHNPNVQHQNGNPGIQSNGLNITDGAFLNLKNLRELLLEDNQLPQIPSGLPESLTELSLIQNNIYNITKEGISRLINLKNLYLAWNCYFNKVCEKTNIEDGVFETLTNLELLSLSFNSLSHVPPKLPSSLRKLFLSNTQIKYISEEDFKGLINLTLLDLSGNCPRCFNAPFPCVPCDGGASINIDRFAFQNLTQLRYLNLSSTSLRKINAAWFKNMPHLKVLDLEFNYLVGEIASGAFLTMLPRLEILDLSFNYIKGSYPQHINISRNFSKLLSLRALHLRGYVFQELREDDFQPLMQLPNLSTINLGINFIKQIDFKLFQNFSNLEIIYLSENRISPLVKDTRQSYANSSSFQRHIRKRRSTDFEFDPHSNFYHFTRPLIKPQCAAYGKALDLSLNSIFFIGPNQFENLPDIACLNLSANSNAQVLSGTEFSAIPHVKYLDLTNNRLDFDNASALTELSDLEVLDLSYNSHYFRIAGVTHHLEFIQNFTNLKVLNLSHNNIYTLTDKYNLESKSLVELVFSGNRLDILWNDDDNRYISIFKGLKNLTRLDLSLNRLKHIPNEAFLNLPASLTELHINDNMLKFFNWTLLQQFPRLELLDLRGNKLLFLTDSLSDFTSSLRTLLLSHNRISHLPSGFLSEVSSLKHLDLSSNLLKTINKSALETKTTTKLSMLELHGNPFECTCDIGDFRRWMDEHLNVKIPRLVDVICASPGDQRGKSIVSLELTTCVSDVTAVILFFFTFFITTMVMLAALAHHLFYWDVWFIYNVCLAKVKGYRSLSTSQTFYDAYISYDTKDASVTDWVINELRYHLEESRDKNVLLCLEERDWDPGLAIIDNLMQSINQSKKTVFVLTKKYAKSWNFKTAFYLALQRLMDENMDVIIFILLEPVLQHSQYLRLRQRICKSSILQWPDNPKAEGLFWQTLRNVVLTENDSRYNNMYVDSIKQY
Assay: HEK-BLUE-hTLR8 cell SEAP reporter assay (Quanti-Blue)
Type: cell-based
Conditions: HEK-BLUE-hTLR8 cells, 0.5 nM to 15 µM, 24 hours
Description: In this experiment, the biological activity of TLR7 and TLR8 in the compound of formula I was detected using cell tests. This method was conducted in human embryonic kidney cells (HEK293) expressing TLR family members such as TLR4, TLR7, TLR8 or TLR9. TLR agonists activate TLRs, triggering the activation of downstream NF-kB, which in turn activates the secreted embryonic alkaline phosphatase (SEAP) reporter gene. The activity of SEAP was detected using the Quanti-Blue (InvivoGen) reagent, thereby reflecting the activities of TLR7 and TLR8 agonists.
The detailed experimental method was as follows: HEK-BLUE-hTLR7 and HEK-BLUE-hTLR8 cell lines were purchased from Invivogen Company and cultured in DMEM medium containing 4.5 g/L glucose (Sigma-Aldrich) and 10% fetal bovine serum under the conditions of temperature 37°C, humidity 95% and 5% CO2.
The compound was tested at a concentration ranging from 0.5 nM to 15 µM over a total of 10 concentration gradients. TLR7 or TLR8 agonists with known activity were added as positive controls, and 1 µL of DMSO was added as a negative control.
The cells were treated as follows: the cells were removed from the culture dish and centrifuged to remove the medium, and resuspended in a T-150 bottle with 10 mL of preheated PBS, 12 mL of preheated medium was added, and the cells were gently pipetted up and down and counted under a microscope. A 200,000/mL single-cell suspension was immediately prepared with medium and added to a 96-well plate at 200 µL/well (40,000/well). The final concentration of DMSO was 0.5%.
The compound was added and incubated in an incubator at 37°C, 5% CO2 for 24 hours.
A supernatant at 20 µL/well was aspirated into 180 µL of preheated Quanti-Blue at 37°C, incubated at 37°C for 1.5 hours, and detected for the absorbance (OD value) with a spectrophotometer at 650 nm. The formula for calculating the agonistic effect is as follows:
Effect % = (average OD value of the drug-administered group - average OD value of the DMSO group) / (average OD value of the positive drug group - average OD value of the DMSO group) × 100
Graphpad software was used to fit the concentration-effect curve, and EC50 was calculated. The test results are shown in Table 15 (A denotes < 250 nM, B denotes 250 nM-1 µM, C denotes 1 µM-2 µM, D denotes > 2 µM, and - denotes not listed or not tested): Table 15

Molecule | EC50 [nM]
CCCN(CCO)C(=O)C1=Cc2ccc(C3(C(=O)Nc4cnc5c(c4)CN(C(=O)[C@H](CCCNC(N)=O)NC(=O)[C@@H](NC(=O)CCCCCN4C(=O)C=CC4=O)C(C)C)CC5)CC3)cc2N=C(N)C1 [II-19, 2-amino-8-(1-((6-((S)-2-((S)-2-(6-(2,5-dioxo-2,5-dihydro-1H-pyrrol-1-yl)hexanoylamino)-3-methylbutanoylamino)-5-ureidopentanoyl)-5,6,7,8-tetrahydro-1,6-naphthyridin-3-yl)carbamoyl)cyclopropyl)-N-(2-hydroxyethyl)-N-propyl-3H-benzo[b]azepine-4-formamide] | 250 to 1000
CCCN(CCO)C(=O)C1=Cc2ccc(C3(C(=O)Nc4cnc5c(c4)CN(C(=O)CCOCCOCCNC(=O)CN4C(=O)C=CC4=O)CC5)CC3)cc2N=C(N)C1 [II-23, 2-amino-8-(1-((6-(3-(2-(2-(2-(2,5-dioxo-2,5-dihydro-1H-pyrrol-1-yl)acetylamino)ethoxy)ethoxy)propionyl)-5,6,7,8-tetrahydro-1,6-naphthyridin-3-yl)carbamoyl)cyclopropyl)-N-(2-hydroxyethyl)-N-propyl-3H-benzo[b]azepine-4-formamide] | < 250
CCCN(CCO)C(=O)C1=Cc2ccc(C3(C(=O)Nc4cnc5c(c4)CN(C(=O)CNC(=O)CCOCCOCCNC(=O)CCCNC(=O)CN4C(=O)C=CC4=O)CC5)CC3)cc2N=C(N)C1 [II-24, 2-amino-8-(1-((6-(20-(2,5-dioxo-2,5-dihydro-1H-pyrrol-1-yl)-4,14,19-trioxo-7,10-dioxa-3,13,18-triazaeicosanacyl)-5,6,7,8-tetrahydro-1,6-naphthyridin-3-yl)carbamoyl)cyclopropyl)-N-(2-hydroxyethyl)-N-propyl-3H-benzo[b]azepine-4-formamide] | 250 to 1000
CCCN(CCO)C(=O)C1=Cc2ccc(C3(C(=O)Nc4cnc5c(c4)CN(C(=O)OCc4ccc(NC(=O)CCOCCOCCNC(=O)CCN6C(=O)C=CC6=O)cc4)CC5)CC3)cc2N=C(N)C1 [II-28, 4-(3-(2-(2-(3-(2,5-dioxo-2,5-dihydro-1H-pyrrol-1-yl)propionylamino)ethoxy)ethoxy)propionylamino)benzyl 3-(1-(2-amino-4-((2-hydroxyethyl)(propyl)carbamoyl)-3H-benzo[b]azepin-8-yl)cyclopropane-1-formylamino)-7,8-dihydro-1,6-naphthyridine-6(5H)-carboxylate] | 250 to 1000
CCCN(CCO)C(=O)C1=Cc2ccc(C3(C(=O)Nc4cnc5c(c4)CN(C(=O)OCc4ccc(O[C@@H]6O[C@H](C(=O)O)[C@@H](O)[C@H](O)[C@H]6O)c(NC(=O)CNC(=O)CCCCCN6C(=O)C=CC6=O)c4)CC5)CC3)cc2N=C(N)C1 [II-36, (2S,3S,4S,5R,6S)-6-(4-(((3-(1-(2-amino-4-((2-hydroxyethyl)(propyl)carbamoyl)-3H-benzo[b]azepin-8-yl)cyclopropyl-1-formylamino)-5,6,7,8-tetrahydro-1,6-naphthyridine-6-carbonyl)oxy)methyl)-2-(2-(6-(2,5-dioxo-2,5-dihydro-1H-pyrrol-1-yl)hexanoylamino)acetylamino)phenoxy)-3,4,5-trihydroxytetrahydro-2H-pyran-2-carboxylic acid] | < 250
CCCN(CCO)C(=O)C1=Cc2ccc(C3(C(=O)Nc4cnc5c(c4)CN(C(=O)CNC(=O)CCOCCOCCNC(=O)CN4C(=O)C=CC4=O)CC5)CC3)cc2N=C(N)C1 [II-46, 2-amino-8-(1-((6-(1-(2,5-dioxo-2,5-dihydro-1H-pyrrol-1-yl)-2,12-dioxo-6,9-dioxa-3,13-diazapentadecan-15-acyl)-5,6,7,8-tetrahydro-1,6-naphthyridin-3-yl)carbamoyl)cyclopropyl)-N-(2-hydroxyethyl)-N-propyl-3H-benzo[b]azepine-4-formamide] | < 250
CCCN(CCO)C(=O)C1=Cc2c(F)cc(C3(C(=O)Nc4cncc(CNC(=O)CNC(=O)CCOCCOCCNC(=O)CN5C(=O)C=CC5=O)c4)CC3)cc2N=C(N)C1 [II-64, 2-amino-8-(1-((5-(17-(2,5-dioxo-2,5-dihydro-1H-pyrrol-1-yl)-3,6,16-trioxo-9,12-dioxa-2,5,15-triazaheptadecyl)pyridin-3-yl)carbamoyl)cyclopropyl)-N-(2-hydroxyethyl)-6-fluoro-N-propyl-3H-benzo[b]azepine-4-formamide] | 250 to 1000
CCCN(OCC)C(=O)C1=Cc2ccc(C3(C(=O)Nc4cnc5c(c4)CN(C(=O)CCOCCOCCOCCOCCOCCOCCNC(=O)CCN4C(=O)C=CC4=O)CC5)CC3)cc2N=C(N)C1 [II-66, 2-amino-8-(1-((6-(1-(2,5-dioxo-2,5-dihydro-1H-pyrrol-1-yl)-3-oxo-7,10,13,16,19,22-hexaoxa-4-azapentacosan-25-acyl)-5,6,7,8-tetrahydro-1,6-naphthyridin-3-yl)carbamoyl)cyclopropyl)-N-ethoxy-N-propyl-3H-benzo[b]azepine-4-formamide] | 250 to 1000
CCCN(CCO)C(=O)C1=Cc2ccc(C3(C(=O)Nc4cnc5c(c4)CN(C(=O)OCc4ccc(NC(=O)[C@H](CC(N)=O)NC(=O)[C@H](C)NC(=O)[C@H](C)NC(=O)CCCCCN6C(=O)C=CC6=O)cc4)CC5)CC3)cc2N=C(N)C1 [II-96] | 250 to 1000

Other lines, results leading:

EC50 [nM] | Molecule
250 to 1000 | CCCN(CCO)C(=O)C1=Cc2ccc(C3(C(=O)Nc4cnc5c(c4)CN(C(=O)OCc4ccc(NC(=O)[C@H](CCCNC(N)=O)NC(=O)[C@@H](NC(=O)Cc6ccc(N7C(=O)C=CC7=O)cc6)C(C)C)cc4)CC5)CC3)cc2N=C(N)C1 [II-97]
250 to 1000 | CCCN(CCO)C(=O)C1=Cc2ccc(C3(C(=O)Nc4cnc5c(c4)CN(C(=O)OCc4ccc(NC(=O)[C@H](CCCNC(N)=O)NC(=O)[C@@H](NC(=O)C6COC(CN7C(=O)C=CC7=O)OC6)C(C)C)cc4)CC5)CC3)cc2N=C(N)C1 (stereo partly shown) [II-98]
250 to 1000 | CCCN(CCO)C(=O)C1=Cc2ccc(C3(C(=O)Nc4cnc5c(c4)CN(C(=O)CCOCCOCCNC(=O)OCc4ccc(NC(=O)[C@H](CCCNC(N)=O)NC(=O)[C@@H](NC(=O)CCCCCN6C(=O)C=CC6=O)C(C)C)cc4)CC5)CC3)cc2N=C(N)C1 [II-104]
250 to 1000 | (S)-1-((1-(3-(1-(2-amino-4-((2-hydroxyethyl)(propyl)carbamoyl)-3H-benzo[b]azepin-8-yl)cyclopropyl-1-amido)-7,8-dihydro-1,6-naphthyridin-6(5H)-yl)-1-oxo-5-ureidopentan-2-yl)carbamoylamino)cyclobutyl-1-carboxylic acid [Example 35]
